From publication PMC6368365, “Didehydro-Cortistatin A Inhibits HIV-1 by Specifically Binding to the Unstructured Basic Region of Tat” (mBio, 2019)

What was measured:
FLAG-tagged Rev = biological target: T1, FLAG-tagged Rev (Human immunodeficiency virus type 1 group M subtype B, UniProt P04618); assay: Confocal immunofluorescence of FLAG-Rev subcellular localization; assay type: cell-based, HIV-1; details: 100 nM dCA, HeLa-CD4-LTR-Luc cells
T1 construct: expressed in transfected cells; host or cells: HeLa-CD4-LTR-Luc
Description: If dCA were to bind the basic domain of Tat in its disordered form, then one would predict it might also bind to other basic peptide sequences and block their functions. The two well-known proteins that share a similar basic domain with Tat are HIV-1 Rev protein and the cellular protein Hexim-1 (Fig. 3A). As such, we investigated whether dCA could inhibit these similar basic domain functions. The basic domain of Rev is responsible for its nuclear localization ([31]); therefore, we assessed whether dCA could impact the subcellular localization of Rev (Fig. 3B) as previously shown for Tat ([10]). We transfected HeLa-CD4-LTR-Luc cells with a plasmid expressing FLAG-tagged Rev and assessed Rev localization in the presence of 100 nM dCA. […] Twenty-four hours later, cells were collected, and total, nuclear, and cytoplasmic mRNAs were extracted, reverse transcribed, and quantified by quantitative real-time PCR (qRT-PCR).
(A) Sequence of the basic domains of HIV Tat HXB3, HIV Rev Bru and intracellular Hexim-1. […] (C) Quantification of the nucleolar fluorescence of panel B using ImageJ. […] Total, nuclear, and cytoplasmic mRNAs were extracted, and viral messages were determined by qRT-PCR. […] (G) Quantification of nuclear fluorescence of panel F using ImageJ. […] Statistical significance was determined using one-way ANOVA with post hoc Tukey’s test. ns, not significant; ***, P < 0.0001; **, P < 0.001. […]

[1] = in vivo; cited from earlier work

T1 sequence (P04618 whole entry, looked up): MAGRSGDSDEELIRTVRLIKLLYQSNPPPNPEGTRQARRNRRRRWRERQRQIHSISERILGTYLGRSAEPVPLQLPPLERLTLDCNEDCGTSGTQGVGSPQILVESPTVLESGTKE

In the case of `CN(C)C1CC23CCC4(O2)C(=CCC2(C)C(c5ccc6ccncc6c5)=CCC24)C=C3C(O)C1O` (centres unmarked) [dCA, didehydro-cortistatin A], the “subcellular localization of Rev” value (FLAG-tagged Rev) is listed as “localization of Rev was left unchanged” and the “penetration of viral sanctuaries” value [1] is listed as “penetrates viral sanctuaries such as the brain”.
